Measured values: ChEMBL document CHEMBL1147260, “Heliotropamide, a novel oxopyrrolidine-3-carboxamide from Heliotropium ovalifolium” (J Nat Prod, 2003)
Active and inactive are the calls of the source.

Experiments:
Cladosporium cucumerinum = test: Antifungal activity against Cladosporium cucumerinum; type: functional, organism-based
[1] = biological target: Acetylcholinesterase (Homo sapiens) (UniProt P22303); test: Inhibition of acetylcholinesterase
Bacillus subtilis = test: Antibacterial activity against Bacillus subtilis; type: functional, organism-based
Candida albicans = test: Antifungal activity against Candida albicans; type: functional, organism-based
[2] = Antioxidant activity assessed as DPPH scavenging activity; type: functional

Measured: Activity

Sequence of Acetylcholinesterase (Homo sapiens) (P22303 whole entry): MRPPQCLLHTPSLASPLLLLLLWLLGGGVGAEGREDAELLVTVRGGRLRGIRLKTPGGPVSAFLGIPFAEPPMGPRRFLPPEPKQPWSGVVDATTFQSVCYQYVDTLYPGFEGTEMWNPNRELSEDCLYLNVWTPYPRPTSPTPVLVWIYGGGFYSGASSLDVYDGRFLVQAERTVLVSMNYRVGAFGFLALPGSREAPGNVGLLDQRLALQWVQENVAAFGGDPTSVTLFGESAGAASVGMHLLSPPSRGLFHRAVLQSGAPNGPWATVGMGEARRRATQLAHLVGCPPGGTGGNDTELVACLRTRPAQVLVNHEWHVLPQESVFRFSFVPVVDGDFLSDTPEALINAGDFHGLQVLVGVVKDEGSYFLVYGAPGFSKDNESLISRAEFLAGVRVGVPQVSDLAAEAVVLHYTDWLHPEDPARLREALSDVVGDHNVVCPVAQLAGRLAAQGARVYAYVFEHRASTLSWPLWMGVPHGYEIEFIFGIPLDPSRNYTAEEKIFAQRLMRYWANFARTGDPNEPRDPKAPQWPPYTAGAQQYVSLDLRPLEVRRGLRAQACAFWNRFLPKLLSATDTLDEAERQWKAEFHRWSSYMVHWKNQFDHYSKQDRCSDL

COc1cc(/C=C2\C(=O)N(CCc3ccc(OC(C)=O)cc3)[C@H](c3ccc(OC(C)=O)c(OC)c3)[C@H]2C(=O)NCCc2ccc(OC(C)=O)cc2)ccc1OC(C)=O
inactive: all assays above

COc1cc(/C=C2\C(=O)N(CCc3ccc(O)cc3)[C@H](c3ccc(O)c(OC)c3)[C@H]2C(=O)NCCc2ccc(O)cc2)ccc1O
inactive: all assays above
